Values of other authors in patent publication US11419828B2, “Hair care terpinen 4-ol (T4O) composition for the treatment of demodex mites on scalp” (priority 2021, dated 2022).

What was measured:
[1] = at levels up to 75%
Demodex mites = conditions: 75% alcohol, 10% povidone-iodine, erythromycin
Demodex = conditions: 38% concentration of terpinen-4-ol, over a period of 4 weeks

| Molecule | Demodex mites' resistance to antiseptic agent (Demodex mites) | other results |
| --- | --- | --- |
| OCCCO [Propanediol, Propanediol 1,3] |  | potential to irritate or sensitize skin [1]: low potential to irritate or sensitize skin |
| CCO [alcohol] | resistant |  |
| CC[C@H]1OC(=O)[C@H](C)[C@@H](O[C@H]2C[C@@](C)(OC)[C@@H](O)[C@H](C)O2)[C@H](C)[C@@H](O[C@@H]2O[C@H](C)C[C@H](N(C)C)[C@H]2O)[C@](C)(O)C[C@@H](C)C(=O)[C@H](C)[C@@H](O)[C@]1(C)O [erythromycin] | resistant |  |
| CC1=CCC(O)(C(C)C)CC1 (centres unmarked) [terpinen-4-ol, Terpinen-4-ol] |  | reduction of Demodex (Demodex): reduce Demodex effectively |
| povidone-iodine | resistant |  |
